{"source": "paper PMC9218685", "about": "“Legume Plant Peptides as Sources of Novel Antimicrobial Molecules Against Human Pathogens” (Frontiers in Molecular Biosciences, 2022)", "key": {"[1]": {"system": "Acinetobacter baumannii (ATCC 17978)", "test": "microbe, parasite or virus in culture", "assay_type": "cell-based", "details": "for MBC Acinetobacter baumannii: ATCC 17978, 3 h", "method_in_brief": "(§1)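 MBC, defined as the lowest concentration giving complete killing, was read after a 3 h exposure. Peptides were two-fold serially diluted starting at 25 µM and applied to roughly 10^7 log-phase bacteria in pH 7.4 potassium-phosphate buffer.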"}, "[2]": {"system": "Lambda DNA/HindIII marker", "test": "Gel retardation assay (DNA aggregation)", "assay_type": "binding", "details": "100 ng DNA, 5 or 10 µM peptide in water, 30 min at room temperature, 1% agarose gel"}, "[3]": {"system": "Candida albicans W01 strain", "test": "microbe, parasite or virus in culture", "assay_type": "cell-based", "details": "W01 strain; read-out: MFC, minimal fungicidal concentration against C. albicans", "method_in_brief": "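Anti-Candida testing followed Szerencsés et al. (2021), with two-fold peptide dilutions from 25 μM to 0.125 μM and miconazole from 10.24 mM to 0.1 μM. MFC taken as the lowest concentration completely eliminating viable C. albicans.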"}, "C. albicans": {"system": "C. albicans", "test": "Scanning electron microscopy of cell morphology", "assay_type": "cell-based, Candida albicans", "details": "30 min treatment, peptide 1.6, 3.125 or 25 µM as in Figure 4 legend", "method": "A. baumannii and C. albicans were grown and treated the same way as for the membrane permeability assay. Cells were then fixed with 2.5% (v/v) glutaraldehyde in phosphate buffered saline (PBS, pH 7.4). 5 μl of the above bacterial and yeast suspensions were spotted on a silicon disk coated with 0.01% Poly-L-Lysine. The filters were washed twice with PBS and gradually dehydrated with ethanol series (30, 50, 70, 80%, and three times 100% ethanol, each for minimum 30 min). The samples were dried with a critical point dryer (K850: Quorum Technologies Ltd.), followed by 12 nm gold coating and observed under a JEOL JSM-7100F/LV scanning electron microscope."}, "[4]": {"system": "E. coli, S. enteritidis, P. aeruginosa, L. monocytogenes, S. aureus, E. faecalis, K. pneumoniae and A. baumannii", "test": "Antimicrobial activity assay, spectrum over the eight tested pathogenic bacteria", "assay_type": "cell-based", "details": "3 h treatment of ~10^7 log phase bacteria, peptides 25 to 0.8 µM; active = MBC ≤25 µM", "method_in_brief": "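Log-phase bacteria (~10^7) treated 3 h with NCR peptides in potassium-phosphate buffer pH 7.4, two-fold dilutions from 25 µM to 0.8 µM. MBC is the lowest concentration completely eliminating viable bacteria. Strains: E. faecalis ATCC 29212, S. aureus HNCMO112011, L. monocytogenes ATCC 19111, P. aeruginosa ATCC 27853, E. coli ATCC 8739, S. enterica ATCC 13076, K. pneumoniae NCTC 13440, A. baumannii ATCC 17978.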"}, "[5]": {"system": "Listeria monocytogenes (ATCC 19111)", "assay_type": "cell-based", "details": "ATCC 19111, 3 h", "method_in_brief": "as §1"}, "[6]": {"system": "Klebsiella pneumoniae (NCTC 13440)", "assay_type": "cell-based", "details": "NCTC 13440, 3 h", "method_in_brief": "as §1"}, "[7]": {"system": "Pseudomonas aeruginosa (ATCC 27853)", "assay_type": "cell-based", "details": "ATCC 27853, 3 h", "method_in_brief": "as §1"}, "[8]": {"system": "Staphylococcus aureus (HNCMO112011)", "assay_type": "cell-based", "details": "HNCMO112011, 3 h", "method_in_brief": "as §1"}, "[9]": {"system": "Escherichia coli (ATCC 8739)", "assay_type": "cell-based", "details": "ATCC 8739, 3 h", "method_in_brief": "as §1"}, "[10]": {"system": "Salmonella enterica (ATCC 13076)", "assay_type": "cell-based", "details": "ATCC 13076, 3 h", "method_in_brief": "as §1"}, "A. baumannii": {"system": "A. baumannii", "test": "Scanning electron microscopy of cell morphology", "assay_type": "cell-based, Acinetobacter baumannii", "details": "30 min treatment, peptide 1.6 or 3.125 µM as in Figure 3 legend"}, "[11]": {"details": "peptides carrying a StrepII tag at their C-terminus, 25 µM, 10% Fetal Bovine Serum, 37°C, 18 h; StrepTactin-HRP Western blot", "method": "Peptides were incubated in 10% Fetal Bovine Serum at 37°C for 18 h. Full length NCRs were used at 25 μM, while short derivatives at 50 μM. The serum proteins and peptides were separated by sodium dodecyl sulfate-polyacrylamide gel electrophoresis (SDS-PAGE, 12% bis-tris gel, MES buffer pH 7.3) and visualized by Coomassie blue staining. NCRs with StrepII tag at their C-terminus were also detected by Western blot analysis using Precision Protein StrepTactin-HRP conjugate antibody (BioRad) and Clarity Western ECL (BioRad) for chemiluminescence detection according to the supplier.\nFIGURE S3 Serum stability assay. Full length NCRs, StrepII-tagged NCR peptides (25 µM) and shorter NCR derivatives (50 µM) were incubated in water or in 10% Fetal Bovine Serum (FBS) for 18 hours at 37°C. Serum proteins and the peptides were separated by SDS-Page and visualized by Coomassie blue staining or in the case of StrepII-tagged NCRs also with Western blot. […]"}, "[12]": {"system": "Enterococcus faecalis (ATCC 29212)", "assay_type": "cell-based", "details": "for Ability to kill E. faecalis: 3 h, ~10^7 log phase bacteria, peptides ≤25 µM; for MBC Enterococcus faecalis: ATCC 29212, 3 h", "method_in_brief": "as §1"}, "[13]": {"system": "E. coli in vitro coupled transcription/translation", "test": "In vitro transcription/translation assay (GFP production)", "assay_type": "biochemical", "details": "RTS 100 E. coli HY Kit, 100 µM peptide or streptomycin, 2 technical parallels", "method": "RTS 100 E. coli HY Kit (biotechrabbit Gmbh, Germany, catalog number: BR1400102) was used for the in vitro transcription/translation assay, according to the protocol. pIVEX2.3 control vector was used to produce GFP protein and to measure the translational efficiency. The amount of GFP produced was measured using a Hidex Plate Reader (Hidex Sense Microplate Reader with Plate Reader Software version 5064). […] All peptides and streptomycin were used at 100 µM concentration.\nFIGURE 5 GFP production by E. coli in vitro coupled transcription-translation assay in the presence of 100 µM NCR or streptomycin. GFP fluorescence represents the average values of 2 technical parallels with their respective standard deviations (SD). *: p < 0.05, ****: p < 0.0001, as determined by one-way ANOVA."}}, "note": "Ends that are not written are not given here. Peptide text beside a SMILES is read from it."}
{"molecule": "CC[C@H](C)[C@H](NC(=O)[C@H](CS)NC(=O)[C@H](CCCCN)NC(=O)[C@@H](NC(=O)[C@@H](NC(=O)[C@H](Cc1ccccc1)NC(=O)[C@H](CCCCN)NC(=O)[C@H](CO)NC(=O)[C@H](CO)NC(=O)[C@@H](NC(=O)[C@H](CC(C)C)NC(=O)[C@H](CCCCN)NC(=O)[C@@H]1CCCN1C(=O)[C@H](CS)NC(=O)[C@H](CC(=O)O)NC(=O)[C@H](C)NC(=O)[C@@H](NC(=O)[C@@H](NC(=O)[C@H](CCCNC(=N)N)NC(=O)[C@H](CS)NC(=O)[C@H](CCC(=O)O)NC(=O)[C@@H](NC(=O)[C@H](CO)NC(=O)[C@@H](N)CCC(=O)O)[C@@H](C)CC)[C@@H](C)O)C(C)C)[C@@H](C)CC)C(C)C)[C@@H](C)CC)C(=O)N[C@@H](CCCCN)C(=O)N[C@@H](CCCCN)C(=O)N[C@@H](CCCNC(=N)N)C(=O)N[C@@H](CS)C(=O)N[C@H](C(=O)N[C@@H](C)C(=O)N[C@@H](CCC(N)=O)C(=O)N[C@@H](Cc1ccccc1)C(=O)N[C@@H](Cc1ccccc1)C(=O)N[C@@H](CCCCN)C(=O)O)C(C)C", "note": "[MsNCR443] (H-ESIECRTVADCPKLISSKFVIKCIKKRCVAQFFK-OH; N-terminus assumed)", "values": [{"measurement": "MBC Acinetobacter baumannii", "setting": "[1]", "value": 1.6, "unit": "µM"}, {"measurement": "MBC", "setting": "[1]; ~10^7 log phase bacteria, Potassium-Phosphate Buffer pH 7.4, 3 h treatment, two-fold dilution series, lowest concentration completely eliminating viable bacteria, read-out: MBC, minimal bactericidal concentration against A. baumannii", "value": 6.25, "unit": "µM"}, {"measurement": "Aggregation of HindIII-digested λ DNA (DNA retained in loading wells)", "setting": "[2]", "value": "did not"}, {"measurement": "MFC", "setting": "[3]", "value": 6.25, "unit": "µM"}, {"measurement": "Morphology of C. albicans cells by SEM", "setting": "C. albicans", "value": "aggregation of shrunken cells in a spider net like matrix"}, {"measurement": "Antibacterial spectrum over the eight tested bacterial strains", "setting": "[4]", "value": "broad-spectrum activity"}, {"measurement": "MBC Listeria monocytogenes", "setting": "[5]", "value": 12.5, "unit": "µM"}, {"measurement": "MBC Klebsiella pneumoniae", "setting": "[6]", "value": 12.5, "unit": "µM"}, {"measurement": "MBC Pseudomonas aeruginosa", "setting": "[7]", "value": 6.25, "unit": "µM"}, {"measurement": "MBC Staphylococcus aureus", "setting": "[8]", "value": 12.5, "unit": "µM"}, {"measurement": "MBC Escherichia coli", "setting": "[9]", "value": 1.6, "unit": "µM"}, {"measurement": "MBC Salmonella enterica", "setting": "[10]", "value": 25, "unit": "µM"}, {"measurement": "Morphology of A. baumannii cells by SEM", "setting": "A. baumannii", "value": "Filament-like structures"}]}
{"molecule": "CC[C@H](C)[C@H](N)C(=O)N[C@@H](CCCNC(=N)N)C(=O)N[C@H](C(=O)N[C@@H](Cc1c[nH]cn1)C(=O)N[C@@H](CS)C(=O)N[C@@H](CCCCN)C(=O)N[C@@H](CC(=O)O)C(=O)N[C@@H](CC(=O)O)C(=O)N[C@@H](Cc1ccccc1)C(=O)N[C@@H](CC(=O)O)C(=O)N[C@@H](CS)C(=O)N[C@H](C(=O)N[C@@H](CCC(=O)O)C(=O)N[C@@H](CC(N)=O)C(=O)N[C@@H](CCCNC(=N)N)C(=O)N[C@@H](CC(C)C)C(=O)N[C@@H](CCC(N)=O)C(=O)N[C@H](C(=O)NCC(=O)N[C@@H](CS)C(=O)N[C@@H](CCCNC(=N)N)C(=O)N[C@@H](CC(C)C)C(=O)N[C@@H](CCC(N)=O)C(=O)N[C@@H](CCCNC(=N)N)C(=O)N[C@@H](CCC(=O)O)C(=O)N[C@@H](CCCCN)C(=O)N1CCC[C@H]1C(=O)N[C@@H](CCCNC(=N)N)C(=O)N[C@@H](CS)C(=O)N[C@H](C(=O)N[C@@H](CC(N)=O)C(=O)N[C@@H](CC(C)C)C(=O)N[C@H](C(=O)N[C@@H](CS)C(=O)N[C@@H](CCCNC(=N)N)C(=O)N[C@@H](CS)C(=O)N[C@@H](CC(C)C)C(=O)N[C@@H](CCCNC(=N)N)C(=O)N[C@@H](CCCNC(=N)N)C(=O)O)C(C)C)C(C)C)C(C)C)[C@@H](C)CC)[C@@H](C)CC", "note": "[NCR055] (H-IRIHCKDDFDCIENRLQVGCRLQREKPRCVNLVCRCLRR-OH; N-terminus assumed)", "values": [{"measurement": "MBC Acinetobacter baumannii", "setting": "[1]", "value": 3.125, "unit": "µM"}, {"measurement": "Stability in serum by Western blot", "setting": "[11]", "value": "stable in the presence of FBS"}, {"measurement": "Antibacterial spectrum over the eight tested bacterial strains", "setting": "[4]", "value": "effective against six bacterial strains but not against S. aureus and K. pneumonia"}, {"measurement": "MBC Listeria monocytogenes", "setting": "[5]", "value": 3.125, "unit": "µM"}, {"measurement": "Ability to kill E. faecalis", "setting": "[12]", "value": "able to kill"}, {"measurement": "MBC Enterococcus faecalis", "setting": "[12]", "value": 12.5, "unit": "µM"}, {"measurement": "MBC Pseudomonas aeruginosa", "setting": "[7]", "value": 6.25, "unit": "µM"}, {"measurement": "MBC Escherichia coli", "setting": "[9]", "value": 6.25, "unit": "µM"}, {"measurement": "MBC Salmonella enterica", "setting": "[10]", "value": 6.25, "unit": "µM"}]}
{"molecule": "[H]/N=C(/N)N[C@H]1[C@H](O)[C@@H](O)[C@H](O[C@@H]2O[C@@H](C)[C@](O)(C=O)[C@H]2O[C@@H]2O[C@@H](CO)[C@H](O)[C@@H](O)[C@@H]2NC)[C@@H](N/C(N)=N\\[H])[C@@H]1O", "note": "[streptomycin]", "values": [{"measurement": "Effect on GFP production (translation)", "setting": "[13]", "value": "inhibited strongly"}]}
{"molecule": "ITISNSSFGRIVYWNCKTDKDCKQHRGFNFRCRSGNCIPIRR-OH (cysteines drawn unpaired) [NCR183]", "values": [{"measurement": "Stability in serum by Western blot", "setting": "[11]", "value": "stable in the presence of FBS"}, {"measurement": "Antibacterial spectrum over the eight tested bacterial strains", "setting": "[4]", "value": "effective against five or four strains"}, {"measurement": "MBC Listeria monocytogenes", "setting": "[5]", "value": 6.25, "unit": "µM"}, {"measurement": "Ability to kill E. faecalis", "setting": "[12]", "value": "able to kill"}, {"measurement": "MBC Enterococcus faecalis", "setting": "[12]", "value": 25, "unit": "µM"}, {"measurement": "MBC Pseudomonas aeruginosa", "setting": "[7]", "value": 6.25, "unit": "µM"}, {"measurement": "MBC Escherichia coli", "setting": "[9]", "value": 6.25, "unit": "µM"}, {"measurement": "MBC Salmonella enterica", "setting": "[10]", "value": 25, "unit": "µM"}]}
